# Tested on: Deroceras reticulatum
# Experiment: Split box trial: slug damage to lettuce seedlings / slug repellency
# Format: in vivo
# Protocol: A split box trial was conducted using Deroceras reticulatum as the slug species and lettuce seedling as the food source. There were 5 split treatments with each treatment replicated four times using a simple randomized block design. Each plot was a single enclosed cage of dimensions 0.6 m×0.4 m. Each cage was of opaque plastic construction with rigid sides and a removable fine muslin top to prevent escape of the slugs. The cages were each filled with natural loam soil to a depth of approximately 7 cm, which was consolidated to prevent slug escape. Half of each box was covered with a polythene sheet before spraying to prevent the spray from reaching the soil on half of the box. […] Following the application of fluensulfone 250 CS, one treatment was incorporated into the soil by mixing the top 2 cm of the soil. The other applications had no soil incorporation. Lettuce plants were planted into the soil either seven or two days after spraying. At these intervals after spraying, six lettuce plants were planted into each cage, three in the treated side and three in the untreated side. After transplanting the lettuce plants, eight adult slugs were introduced into the centre of each cage. The soil was kept damp for the duration of the trials. [table] All sprayed treatments applied in 200 l/ha water. Assessments were carried out after the introduction of the slugs. Severity of leaf damage was assessed using a % scale where 0=no damage and 100=total loss of plant foliage. Incidence of plant damage was assessed by counting the actual number of plants showing damage.
smiles,measurement,setting,value
O=S(=O)(CCC(F)=C(F)F)c1ncc(Cl)s1 [fluensulfone],numbers of damaged lettuce plants,"all fluensulfone treated boxes, compared to the untreated box",reduced compared to the untreated box
same,amount of damage caused to the lettuce plants (damage severity),treated boxes compared to the untreated box,reduced
same,effect on live slugs (repellency),"treated boxes, slugs avoided the sprayed side and migrated to the untreated side",repellent effect

# From patent US20170295788A1, “USE OF HETEROCYCLIC FLUOROALKENYL SULFONE COMPOUNDS FOR REPELLING MOLLUSCS” (Adama Makhteshim Ltd., priority 2014, published 2017)
